Converted amounts (≈) assume the structure as drawn. Where two headings read alike, the source gives them in different places.
Key:
[1] = tested on: LTB4 production in rat polymorphonuclear cells; assay: Ex vivo inhibition of LTB4 production (LTB4 biosynthesis); type: cell-based; details: for IC50: Rattus norvegicus, read-out: Inh. of LTB4 biosynth., IC50; for Inh. of LTB4 biosynth., %: at 30 μg (%/μg)
Experimental: Ex vivo Inhibition of LTB4 Production The production of LTB4 was determined in rat polymorphonuclear cells from pleural exudate elicited by heat-activated rat serum (Palmer R. M. J., Salmon J. A.: Immunology 50, 65 (1983)). The cells were stimulated with the Ca ionophore A 23187 (Sigma) and incubated with various concentrations of the drugs tested. The sample containing only buffer was used for the determination of unaffected biosynthesis; the complete inhibition was measured in a sample with 100 μg of NDGA in 1 ml. LTB4 was determined in supernatant using a commercial RIA kit (Amersham).

LTB4 receptor = LTB4 receptor (Cavia porcellus, UniProt H0VYV8); assay: LTB4 receptor binding study; details: 3H-LTB4, guinea-pig spleen membranes; for IC50: read-out: Inh. of LTB4 rec. binding, IC50; for inhibition at 20 µM: read-out: Inh. of LTB4 rec. binding, %
LTB4 receptor, sequence (H0VYV8 1-348): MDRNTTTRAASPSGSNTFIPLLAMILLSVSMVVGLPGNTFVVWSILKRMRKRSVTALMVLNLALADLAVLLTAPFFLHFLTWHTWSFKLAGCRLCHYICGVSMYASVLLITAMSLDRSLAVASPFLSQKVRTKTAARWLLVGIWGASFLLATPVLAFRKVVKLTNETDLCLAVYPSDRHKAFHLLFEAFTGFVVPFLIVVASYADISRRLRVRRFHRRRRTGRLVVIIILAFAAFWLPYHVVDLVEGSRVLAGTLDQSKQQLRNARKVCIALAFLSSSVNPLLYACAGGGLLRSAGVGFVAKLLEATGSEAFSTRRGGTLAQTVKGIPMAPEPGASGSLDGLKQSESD
Experimental: LTB4 Receptor Binding Study
A slightly modified method of Cheng and coworkers (Cheng J. B. et al.: J. Pharm. Expl. Ther. 236, 126 (1986)) was used. The membrane fraction was prepared from male guinea-pig spleen; 2 mg of membranes were incubated with 0.3 nM ^3 H-LTB4 at 25° C. for 30 min in 100 μl of the incubated mixture. The nonspecific binding was determined in the presence of 0.1 μM LTB4. The membranes were filtered though Whatman GF/C paper and washed triply with buffer. The radioactivity was measured by liquid scintillation spectrometry, and the specific binding of ^3 H-LTB4 to the receptor was determined.

LTD4 receptor = target: T1, LTD4 receptor (Cavia porcellus, UniProt Q2NNR5); assay: LTD4 receptor binding study; details: 3H-LTD4, guinea-pig lung membranes; for IC50: read-out: Inh. of LTD4 rec. binding, IC50; for inhibition at 100 µM: read-out: Inh. of LTD4 rec. binding, %
T1 construct: The membrane fraction was prepared from male guinea-pig lungs; from tissue; host or cells: male guinea-pig lung membranes
T1 sequence (Q2NNR5 1-340): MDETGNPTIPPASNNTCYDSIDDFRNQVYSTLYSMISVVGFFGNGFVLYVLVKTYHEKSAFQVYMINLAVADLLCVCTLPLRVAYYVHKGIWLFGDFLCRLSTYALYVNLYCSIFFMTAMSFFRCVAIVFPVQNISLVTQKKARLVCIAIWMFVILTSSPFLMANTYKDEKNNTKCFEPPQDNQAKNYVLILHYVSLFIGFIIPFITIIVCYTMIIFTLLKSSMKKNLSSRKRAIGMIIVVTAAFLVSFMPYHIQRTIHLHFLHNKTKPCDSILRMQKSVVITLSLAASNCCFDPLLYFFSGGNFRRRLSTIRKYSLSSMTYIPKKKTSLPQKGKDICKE
Experimental: LTD4 Receptor Binding Study
This study was performed according to the method of Burns and coworkers (Burns R. F. et al.: Life Sci. 33, 645 (1983)). The membrane fraction was prepared from male guinea-pig lungs, and 4 mg of this fraction were incubated with 0.4 nM ^3 H-LTD4 for 60 min at 25° C. in 100 μl of the incubated mixture. The nonspecific binding was determined in the presence of 0.1 μM LTD4. The filtration of the membranes, washing, and radioactivity measurement were as above.

[2] = tested on: peroxidation of lipids from the hepatic cells membranes; assay: Antioxidant effect in vitro; type: biochemical; details: at 100 μg
Text: Antioxidant Effect in vitro
The end-product, malonic dialdehyde, was transformed to coloured complex with thiobarbituric acid and determined spectrophotometrically. The antioxidant effect was expressed in % of peroxidation inhibition in the presence of the compound tested in comparison to a control sample.

Wistar-Han rats = assay: Inhibition of carrageenan edema; type: in vivo; details: Rattus norvegicus, read-out: CE: inhibition of carrageenan-induced edema, % of inh.
rats = assay: Inhibition of carrageenan-induced pleuritis in rats; type: in vivo; details: Rattus norvegicus, po, 4 h
Experimental: Inhibition of Carrageenan-induced Pleuritis in Rats
(Hidaka T. J.: Pharm. Pharmacol. 38, 242 (1986) 1 ml of 0.5% carrageenan solution in saline was administered intrapleurally to experimental animals under mild ether anesthesia. Test drugs were administered in single oral dose 1 h before carrageenan injection, 4 h following the carrageenan application the rats were killed and exudate was withdrawn from opened pleural cavity. The volume of exudate, its cellularity and total cell number were determined.

male mice = assay: Inhibition of arachidonic acid-induced ear inflammation in mice; type: in vivo; details: Mus musculus, po, 1 h
Experimental: Inhibition of Arachidonic Acid-induced Ear Inflammation in Mice (Opas E. E. et al.: J. Invest. Dermatol. 84, 253 (1985) Ear inflammation was induced in male mice by 20 μl of arachidonic acid dissolved in acetone (concentration 100 mg/ml). The mice were sacrificed 1 h after application of arachidonic acid and the ears were cut off by standard means. The other, vehicle-treated ear of the same animal served as a control. The degree of ear hyperemia and the weight of ear lobes were evaluated. Test compounds were administered orally 1 h before the induction of inflammation.

[3] = dose 100 mg/kg, oral, values with mark n: p > 0.05, read-out: Experimental pleuritis, A: volume of exudate in pleural cavity, % of inh.
[4] = dose 100 mg/kg, oral, values with mark n: p > 0.05, read-out: Experimental pleuritis, B: number of cells, % of inh.
[5] = dose 100 mg/kg, oral, values with mark n: p > 0.05, read-out: Experimental pleuritis, C: cellularity in a volume unit, % of inh.
[6] = values with mark n: p > 0.05, read-out: Ear edema, D: edema of ear lobe, % of inh.
[7] = values with mark n: p > 0.05, read-out: Ear edema, E: hyperemia of ear lobe, % of inh.

IC50 [1] [µg/mL]	IC50 (LTB4 receptor) [µM]	inhibition at 20 µM (LTB4 receptor) [%]	IC50 (LTD4 receptor) [µM]	inhibition at 100 µM (LTD4 receptor) [%]	SMILES	Inh. of LTB4 biosynth., % [1] [%]	Antiox. effect, % of peroxidation inhibition [2] [%]	inhibition in vivo at 100 mg/kg (Wistar-Han rats; dose 100 mg/kg) [%]	inhibition in vivo at 100 mg/kg (rats; [3]) [%]	inhibition in vivo at 100 mg/kg (rats; [4]) [%]	inhibition in vivo at 100 mg/kg (rats; [5]) [%]	inhibition in vivo at 200 mg/kg (male mice; [6]) [%]	inhibition in vivo at 200 mg/kg (male mice; [7]) [%]	inhibition in vivo at 100 mg/kg (Wistar-Han rats) [%]	inhibition in vivo at 100 mg/kg (rats; read-out: Experimental pleuritis, A: volume of exudate in pleural cavity, % of inh.) [%]	inhibition in vivo at 100 mg/kg (rats; read-out: Experimental pleuritis, B: number of cells, % of inh.) [%]	inhibition in vivo at 100 mg/kg (rats; read-out: Experimental pleuritis, C: cellularity in a volume unit, % of inh.) [%]
	20.6	50	4.1	100	CCCc1c(OCCCOc2cccc(Sc3ccccc3C(=O)O)c2)ccc(C(C)=O)c1O [Compound 6, 2-(3-(3-(4-Acetyl-3-hydroxy-2-propylphenoxy)propoxy)phenylsulfanyl)benzoic Acid]	73	19	22	26	29	6	9	8				
	12	68	13.6	100	CCCc1c(OCCCCOc2ccc(Sc3ccccc3C(=O)O)cc2)ccc(C(C)=O)c1O [Compound 7]	100	16	41	14	35	26	16	5				
0.02 (≈ 0.0516 µM)	92.9	24	1.6	100	O=C(O)c1ccc(Sc2cccc(OCc3ccc4ccccc4n3)c2)cc1 [Compound 18]	100	16	10	28	29	1	13	8				
0.08 (≈ 0.19 µM)	30.1	39	1.7	86	O=C(O)c1ccccc1Sc1ccc(OCc2ccc3cc(Cl)ccc3n2)cc1 [Compound 21]	100	0	18	15	12	4	7	3				

The remaining lines, values behind:

SMILES	IC50 [1] [µg/mL]	IC50 (LTB4 receptor) [µM]	inhibition at 20 µM (LTB4 receptor) [%]	IC50 (LTD4 receptor) [µM]	inhibition at 100 µM (LTD4 receptor) [%]	Inh. of LTB4 biosynth., % [1] [%]	Antiox. effect, % of peroxidation inhibition [2] [%]	inhibition in vivo at 100 mg/kg (Wistar-Han rats; dose 100 mg/kg) [%]	inhibition in vivo at 100 mg/kg (rats; [3]) [%]	inhibition in vivo at 100 mg/kg (rats; [4]) [%]	inhibition in vivo at 100 mg/kg (rats; [5]) [%]	inhibition in vivo at 200 mg/kg (male mice; [6]) [%]	inhibition in vivo at 200 mg/kg (male mice; [7]) [%]	inhibition in vivo at 100 mg/kg (Wistar-Han rats) [%]	inhibition in vivo at 100 mg/kg (rats; read-out: Experimental pleuritis, A: volume of exudate in pleural cavity, % of inh.) [%]	inhibition in vivo at 100 mg/kg (rats; read-out: Experimental pleuritis, B: number of cells, % of inh.) [%]	inhibition in vivo at 100 mg/kg (rats; read-out: Experimental pleuritis, C: cellularity in a volume unit, % of inh.) [%]
CCCc1c(OCCOc2ccc(Sc3ccc(C(=O)O)cc3)cc2)ccc(C(C)=O)c1O [Compound 1, 4-(4-(2-(4-Acetyl-3-hydroxy-2-propylphenoxy)ethyloxy)phenylsulfanyl)benzoicAcid]	3.5 (≈ 7.5 µM)	17	61	10.8	98	100	54	31	8	17	9	13	8				
CCCc1c(OCCOc2cccc(Sc3ccc(C(=O)O)cc3)c2)ccc(C(C)=O)c1O [Compound 2, 4-(3-(2-(4-Acetyl-3-hydroxy-2-propylphenoxy)ethyloxy)phenylsulfanyl)benzoicAcid]	0.8 (≈ 1.71 µM)	5.2	98	26.1	88	100	41	30	2	43	46	18	2				
CCCc1c(OCCCOc2ccc(Sc3ccc(C(=O)O)cc3)cc2)ccc(C(C)=O)c1O [Compound 3, 4-(4-(3-(4-Acetyl4-3-hydroxy-2-propylphenoxy)propoxy)phenylsulfanyl)benzoicAcid]	0.48 (≈ 0.999 µM)	20	50	19	97	100	33	32	2	27	28	8	5				
CCCc1c(OCCCOc2ccc(Sc3ccccc3C(=O)O)cc2)ccc(C(C)=O)c1O [Compound 4]		13	47	10.4	100	100	34					6	2	35	10	35	30
CCCc1c(OCCCCOc2cccc(Sc3ccc(C(=O)O)cc3[N+](=O)[O-])c2)ccc(C(C)=O)c1O [Compound 9, 4-(3-(4-(4-Acetyl-3-hydroxy-2-propylphenoxy)butoxy)phenylsulfanyl)-3-nitrobenzoic Acid]		15	65	48.4	53	100	40	19	34	54	30	14	2				
CCCc1c(OCCCCOc2ccc(Sc3ccc([N+](=O)[O-])cc3C(=O)O)cc2)ccc(C(C)=O)c1O [Compound 10, 2-(4-(4-(4-Acetyl-3-hydroxy-2-propylphenoxy)butoxy)phenylsulfanyl)-5-nitrobenzoic Acid]		13	66	15.2	89	100	14	22	14	31	19	20	2				

— patent publication US6303612A, “Derivatives of hydroxyphenylsulfanylbenzoic and hydroxphenylsulfanylarylacetic acids” (Leciva, A.S., priority 1998, dated 2001)
